Read-outs that look alike come from different tables or passages of the source.
Columns and labels:
GSPT1 = biological target: T1, GSPT1 (Homo sapiens, UniProt P15170); assay: Immunoblot protein degradation in MHH-CALL-4 cells; assay type: cell-based
T1 construct: degradation of JAK2 and GSPT1 in MHH-CALL-4 cells; endogenous in cells; host or cells: MHH-CALL-4
Experimental: Cells were washed twice with ice-cold PBS and lysed in RIPA lysis buffer (Sigma) freshly supplemented with Halt™ Protease Inhibitor Cocktail (ThermoFisher) for 15 minutes on ice. The cell pellet was removed by centrifugation at 13,000 g at 4° C. for 15 minutes. Protein concentration was measured by BCA assay (Thermo Fisher Scientific). Proteins were denatured in NuPAGE LDS 4× sample buffer supplemented with reducing agents (Invitrogen). Typically, 10-20 µg of total protein was loaded per lane on a 4%-12% NuPAGE Bis-Tris gradient gel (Invitrogen) and analyzed by standard immunoblotting and imaged using Li-COR Odyssey CLx (LI-COR Biotechnology, Lincoln, NE). Primary antibodies used were: JAKI (Cell Signaling #3332S), JAK2 (#3230S), JAK3 (#8827S), TYK2 (#9312S), GSPT1 (#14980S), CRBN (#71810S), IKZF1 (Santa Cruz Biotechnology, SC-398265) and ACBT (Santa Cruz Biotechnology, SC-47778).

MHH-CALL-4 = assay: Cytotoxicity assay (resazurin, 72 hours); assay type: cell-based, human
Caco-2 cells = assay: Caco-2 cell permeability; assay type: in vitro ADME
Experimental: Compound Caco-2 cell permeability was determined using the Transwell® 0.4 μm polycarbonate membrane 96-well as described before (Uchida, et al. (2009) J Pharmacol Toxicol Methods 59(1): 39-43). Briefly, Caco-2 cells monolayers were incubated over 2 hours at 37° C. Fractions were collected from receivers (basal side, B), and concentrations were assessed by UPLC/MS (Waters; Milford, MA). All compounds were tested in triplicates. The A→B (or B→A) apparent permeability coefficients (Papp) of each compound were calculated using the equation, Papp=dQ/dt×1/AC0, where dQ/dt equals the flux of a drug across the monolayer, A equals the total insert well surface area, and CO is the initial concentration of substrate in the donor compartment.

JAK2 = biological target: T2, JAK2 (Homo sapiens, UniProt O60674, I682F); assay: Immunoblot protein degradation in MHH-CALL-4 cells; assay type: cell-based
T2 construct: degradation of JAK2 and GSPT1 in MHH-CALL-4 cells; endogenous in cells; host or cells: MHH-CALL-4

[1] = system: Human CD45+ leukemic cells purified from patient derived xenografts (PDX)
[2] = system: JAK-STAT5 signaling pathway; assay: Phosphoflow analysis in MHH-CALL-4 cells with or without TSLP; assay type: cell-based, human; details: 1 μM, one hour before TSLP 25 ng/mL for 30 minutes

T2 sequence (O60674 whole entry I682F): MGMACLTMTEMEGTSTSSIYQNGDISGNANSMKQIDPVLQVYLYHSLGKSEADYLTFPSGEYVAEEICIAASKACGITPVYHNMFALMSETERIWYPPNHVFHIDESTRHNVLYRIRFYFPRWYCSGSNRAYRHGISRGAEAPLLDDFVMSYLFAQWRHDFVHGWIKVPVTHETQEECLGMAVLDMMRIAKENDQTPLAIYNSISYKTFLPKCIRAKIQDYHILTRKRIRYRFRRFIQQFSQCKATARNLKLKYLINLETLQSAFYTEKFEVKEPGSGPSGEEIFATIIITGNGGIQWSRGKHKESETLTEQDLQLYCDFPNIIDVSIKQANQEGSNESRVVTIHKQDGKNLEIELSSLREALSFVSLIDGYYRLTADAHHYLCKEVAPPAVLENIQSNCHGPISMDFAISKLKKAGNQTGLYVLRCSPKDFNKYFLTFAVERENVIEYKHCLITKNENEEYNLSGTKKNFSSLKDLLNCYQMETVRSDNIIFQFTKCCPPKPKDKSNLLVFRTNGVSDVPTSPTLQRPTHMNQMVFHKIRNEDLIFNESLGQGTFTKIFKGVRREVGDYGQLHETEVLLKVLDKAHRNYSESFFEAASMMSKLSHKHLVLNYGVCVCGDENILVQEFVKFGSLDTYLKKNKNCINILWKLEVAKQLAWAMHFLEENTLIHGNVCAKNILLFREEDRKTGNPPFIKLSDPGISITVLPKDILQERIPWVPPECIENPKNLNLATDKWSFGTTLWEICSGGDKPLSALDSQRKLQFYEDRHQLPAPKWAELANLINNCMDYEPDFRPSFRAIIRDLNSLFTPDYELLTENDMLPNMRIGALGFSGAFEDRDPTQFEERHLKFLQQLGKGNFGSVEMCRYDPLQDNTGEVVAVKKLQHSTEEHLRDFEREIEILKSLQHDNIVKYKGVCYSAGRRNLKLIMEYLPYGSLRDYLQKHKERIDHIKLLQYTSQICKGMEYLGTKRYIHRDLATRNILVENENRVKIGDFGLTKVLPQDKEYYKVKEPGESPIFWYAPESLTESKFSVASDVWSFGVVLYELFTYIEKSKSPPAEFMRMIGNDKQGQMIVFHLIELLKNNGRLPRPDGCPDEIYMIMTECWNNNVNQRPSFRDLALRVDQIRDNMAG
T1 sequence (P15170 whole entry): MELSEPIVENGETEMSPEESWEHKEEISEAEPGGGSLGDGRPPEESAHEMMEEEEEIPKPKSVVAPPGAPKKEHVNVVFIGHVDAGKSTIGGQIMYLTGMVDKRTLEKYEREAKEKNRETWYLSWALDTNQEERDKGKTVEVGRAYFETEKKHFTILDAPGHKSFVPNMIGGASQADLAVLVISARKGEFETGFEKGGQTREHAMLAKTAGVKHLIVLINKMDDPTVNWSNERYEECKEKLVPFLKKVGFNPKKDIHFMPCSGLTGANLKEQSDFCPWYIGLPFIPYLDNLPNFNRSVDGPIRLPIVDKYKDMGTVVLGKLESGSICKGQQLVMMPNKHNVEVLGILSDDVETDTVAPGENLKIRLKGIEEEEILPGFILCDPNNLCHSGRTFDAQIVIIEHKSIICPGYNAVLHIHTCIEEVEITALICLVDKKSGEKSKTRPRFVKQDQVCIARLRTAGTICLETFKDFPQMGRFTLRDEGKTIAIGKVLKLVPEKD

Row | Structure (SMILES) | extent of degradation of GSPT1 (GSPT1) | killing of MHH-CALL-4 cells / cytotoxicity, in words (MHH-CALL-4) | extent of degradation of JAK2 (JAK2) | cytotoxicity in PDX cells ex vivo [1] | other results
1 | CC(=O)NCCCNc1ccc2c(c1)C(=O)N(C1CCC(=O)NC1=O)C2=O (stereo not shown) [Cmpd. no. 53] | preferential | intermediately effective | – | – | –
2 | CCCn1cc(-c2nc(Nc3ccc(C(=O)NCCCCNc4cccc5c4C(=O)N(C4CCC(=O)NC4=O)C5=O)cc3)nc3[nH]ccc23)cn1 (stereo not shown) [SJ000988497] | – | – | – | – | Papp, Caco-2 assay (Caco-2 cells): 1.912 ×10⁻⁶ cm/s
3 | CCS(=O)(=O)N1CC(CC#N)(n2cc(-c3nc(Nc4ccc(C(=O)NCCN5CCN(c6ccc7c(c6)C(=O)N(C6CCC(=O)NC6=O)C7=O)CC5)cc4)nc4[nH]ccc34)cn2)C1 (stereo not shown) [Compound 8] | – | intermediately effective | – | – | killing of MHH-CALL-4 cells / cytotoxicity, in words (MHH-CALL-4; listed as compound 8): reduced activity
4 | CNCCCCNc1ccc2c(c1)C(=O)N(C1CCC(=O)NC1=O)C2=O (stereo not shown) [Cmpd. no. 80] | minimal activity on either target | relatively low activity | minimal activity on either target | – | –
5 | N#CC[C@H](C1CCCC1)n1cc(-c2ncnc3[nH]ccc23)cn1 [Ruxolitinib, reference compound] | – | – | – | – | EC50 (MHH-CALL-4; Homo sapiens, MHHCALL4, read-out: HHCALL4 (nM), MHHCALL4 EC50): 5800 nM
6 | CC(=O)NCCCNC(=O)COc1cccc2c1C(=O)N(C1CCC(=O)NC1=O)C2=O (stereo not shown) [Cmpd. no. 59] | minimal activity on either target | relatively low activity | minimal activity on either target | – | –
7 | N#CC[C@H](C1CCCC1)n1cc(-c2nc(Nc3ccc(C(=O)NCCCCNc4cccc5c4C(=O)N(C4CCC(=O)NC4=O)C5=O)cc3)nc3[nH]ccc23)cn1 (stereo partly shown) [Compound 5] | degradation of GSPT1 was observed | – | – | show cytotoxicity | JAK inhibition (phosphoflow) [2]: comparable JAK inhibition; EC50 (MHH-CALL-4; Homo sapiens, MHHCALL4, Table 6, no star, read-out: HHCALL4 (nM), MHHCALL4 EC50): 784 nM
8 | CCS(=O)(=O)N1CC(CC#N)(n2cc(-c3nc(Nc4ccc(C(=O)NCCCCNc5cccc6c5C(=O)N(C5CCC(=O)NC5=O)C6=O)cc4)nc4[nH]ccc34)cn2)C1 (stereo not shown) [Compound 6] | – | – | – | show cytotoxicity | JAK inhibition (phosphoflow) [2]: comparable JAK inhibition; EC50 (MHH-CALL-4; Table 6, no star, read-out: HHCALL4 (nM), MHHCALL4 EC50): 1.52 nM
9 | CNCCCN1CCN(c2ccc3c(c2)C(=O)N(C2CCC(=O)NC2=O)C3=O)CC1 (stereo not shown) [Cmpd. no. 56] | – | intermediately effective | preferential | – | –
10 | CC(=O)Nc1cc(Oc2ccc3c(nc(Nc4ccc(F)cc4F)n3C)c2C)ccn1 [CHZ868, reference compound] | – | – | – | not | –
